Assay results reported in US20200405727A1, “NEW ALK INHIBITOR SENOLYTIC DRUGS” (FONDAZIONE PER L'ISTITUTO ONCOLOGICO DI RICERCA (IOR), priority 2018, published 2020).
“Also recorded” adds a separate entry of the source.

Columns and labels:
MEF Pten−/− (PICS) = assay: Senolytic screening in PICS (Docetaxel-induced senescent MEF Pten−/−), cell viability and SA-β-Gal; format: cell-based, murine; details: 10 μM, 48 hours, MEF Pten−/− pre-treated with Docetaxel 750 nM; versus ABT-263 positive control
Procedure: (§1) The platform which was devised in our laboratory is capable of identifying the senolytic compounds based upon two parameters: (1) the inhibition of the cell viability and (2) the removal of the positive cells to the assay of β-Galactosidase (SA-β-Gal, senescence marker). As positive control of the compounds at the test stage, we included ABT-263, previously identified as senolytic compound 2. At last, the senolytic potentiality of these compounds is tested on murine embryonic fibroblasts (MEF) Pten−/− and WT.
(§2) Technically the screening was performed in three passages; • Before treatment, to the culture medium of MEF (DMEM, 10%FBS, 5% P/S) Docetaxel is added, at the concentration of 750 nM for 48 hours. […] The cells were seeded in a 96-well plate at a density of 5000 cells per well. In the more external wells PBS was added, so as to be able to maintain the correct humidity inside the plate. • At last, 24 hours after the seeding of cells, the compounds of our study were added to the cells for 48 hours at the concentration of 10 μM. […]

MEF wt (NS) = assay: Senolytic screening, specificity on non-senescent MEF wt; format: cell-based, murine; details: 10 μM, 48 hours; versus ABT-263
Procedure: as §1, §2

[1] = system: MEFs in replicative senescence (RS); assay: Replicative senescence assay in MEFs, Crystal Violet and SA-β-Gal; format: cell-based, murine; details: 10 μM, passage 8, Crystal Violet and SA-β-Gal
Procedure: (§3) The senolytic activity of Alectinib was validated in the context of the replicative senescence: assay which mimes the natural process of cell ageing due to the shortening of telomers. The MEFs were seeded in 10 cm2-plates (3×10^5 cells/plate). Every 3 days these cells were detached by means of trypsin, counted with Trypan Blu and plated in the same number. This process was performed for 8 passages before starting the senolytic treatment. At passages 8 and 9 the senescence of these cells was tested by means of the assay of SA-β-Gal (about 78% of senescent cells).
(§4) At passage 8, the non-senescent cells (NS) and cells in replicative senescence (RS) were seeded in a 96-well plate (5000 cells/well) and treated at different concentrations of Alectinib.

non-senescent (NS) MEFs = assay: Replicative senescence assay in MEFs, non-senescent cells; format: cell-based, murine; details: 10 μM, Crystal Violet and SA-β-Gal
Procedure: as §3, §4

[2] = system: IMR90 in replicative senescence (RS); assay: Replicative senescence assay in human fibroblasts IMR90, Crystal Violet and SA-β-Gal; format: cell-based; details: 2.5 μM, passage 33, Crystal Violet and SA-β-Gal
Procedure: (§5) This assay was validated even with human fibroblasts, IMR90. Analogously to the protocol used for the MEFs, the IMR90 were seeded in 10 cm2-wide plates (3×10^5 cells/plate). Every 3 days these cells were detached by means of trypsin, counted with Trypan Blu and plated in the same number. This process was performed for 33 passages before starting the senolytic treatment. At passages 33 and 34 the senescence of these cells was tested by means of the assay of SA-β-Gal (about 78% of senescent cells).
(§6) At passage 33 non-senescent (NS) cells and cells in replicative senescence (RS) were seeded in a 96-well plate (5000 cells/well) and treated with different concentrations of Alectinib.

non-senescent (NS) IMR90 = assay: Replicative senescence assay in IMR90, non-senescent cells; format: cell-based, human; details: 2.5 μM, Crystal Violet and SA-β-Gal
Procedure: as §5, §6

TrampC1 = assay: Removal of Palbociclib-induced senescent TrampC1 prostate cancer cells, Crystal Violet and SA-β-Gal; format: cell-based, murine; details: 5 μM for 48 hours, senescence induced with Palbociclib
Procedure: (§7) Subsequently we tested the effects of Alectinib on cancer cell lines pre-treated with stimulator of senescence. In the specific case we used TrampC1 and PC3, two cell lines of prostate cancer, respectively murine and human lines. With the purpose of inducing the senescence in these cells, we used Palbociclib, a specific inhibitor of […] currently used in clinic in the treatment of breast cancer. Once the cells started senescence, Alectinib was added to the culture medium at the concentration of 5 μM for 48 hours.

PC3 = assay: Removal of Palbociclib-induced senescent PC3 prostate cancer cells, Crystal Violet and SA-β-Gal; format: cell-based, human; details: 5 μM for 48 hours, senescence induced with Palbociclib
Procedure: as §7

MEF Pten−/− = assay: Induction of senescence in MEF Pten−/− by Docetaxel; format: cell-based, murine; details: 750 nM for 48 hours
Procedure: (§8) Technically the screening was performed in three passages; • Before treatment, to the culture medium of MEF (DMEM, 10%FBS, 5% P/S) Docetaxel is added, at the concentration of 750 nM for 48 hours. […] The cells were seeded in a 96-well plate at a density of 5000 cells per well. In the more external wells PBS was added, so as to be able to maintain the correct humidity inside the plate. • At last, 24 hours after the seeding of cells, the compounds of our study were added to the cells for 48 hours at the concentration of 10 μM.

MEF WT = assay: Effect of Docetaxel on cell cycle of MEF WT; format: cell-based, murine; details: 750 nM for 48 hours
Procedure: as §8

Row | SMILES | removal of senescent cells (PICS) (MEF Pten−/− (PICS)) | selectivity: impact on MEF wt (NS) (MEF wt (NS)) | removal of senescent cells (RS MEFs) [1] | impact on NS cells (MEFs) (non-senescent (NS) MEFs) | removal of senescent cells (RS IMR90) [2] | impact on NS cells (IMR90) (non-senescent (NS) IMR90) | removal of senescent cells (TrampC1) (TrampC1) | removal of senescent cells (PC3) (PC3) | senescence of MEF Pten−/− (MEF Pten−/−) | cell cycle of MEF WT (MEF WT)
1 | CCc1cc2c(cc1N1CCC(N3CCOCC3)CC1)C(C)(C)c1[nH]c3cc(C#N)ccc3c1C2=O [Alectinib] | strong capability in killing the PICS cells; also recorded: effectiveness comparable to ABT-263 | non-senescent, NS, cells are kept vital; also recorded: more selective by impacting less seriously on MEF wt (NS) | capable of removing the senescent cells | without killing the non-senescent (NS) cells; also recorded: without impacting on the cells NS | capable of removing the senescent cells | without killing the non-senescent (NS) cells; also recorded: without impacting on the NS cells | capability of removing the senescent cells in both cell lines; also recorded: capable of removing successfully the senescent cells | capability of removing the senescent cells in both cell lines; also recorded: capable of removing successfully the senescent cells |  | 
2 | CC(=O)O[C@@]12CO[C@@H]1C[C@H](O)[C@@]1(C)C(=O)[C@H](O)C3=C(C)[C@@H](OC(=O)[C@H](O)[C@@H](NC(=O)OC(C)(C)C)c4ccccc4)C[C@@](O)([C@@H](OC(=O)c4ccccc4)[C@H]21)C3(C)C [Docetaxel] |  |  |  |  |  |  |  |  | 80% | without altering the cell cycle of MEF WT
